According to US8629148B2, “Substituted oxindole-derivatives and the use thereof for the treatment of vasopressin-dependent illnesses” (AbbVie Deutschland GmbH & Co. KG, priority 2007, dated 2014):

Assays:
[1] = biological target: T1, human vasopressin V1b receptor (Homo sapiens, UniProt P47901); assay: Vasopressin V1b receptor binding assay (3H-AVP displacement, CHO-K1 membranes)
T1 construct: expressed in transfected cells; host or cells: CHO-K1 (cell line hV1b_3H2_CHO), membranes
T1 sequence (P47901 1-424): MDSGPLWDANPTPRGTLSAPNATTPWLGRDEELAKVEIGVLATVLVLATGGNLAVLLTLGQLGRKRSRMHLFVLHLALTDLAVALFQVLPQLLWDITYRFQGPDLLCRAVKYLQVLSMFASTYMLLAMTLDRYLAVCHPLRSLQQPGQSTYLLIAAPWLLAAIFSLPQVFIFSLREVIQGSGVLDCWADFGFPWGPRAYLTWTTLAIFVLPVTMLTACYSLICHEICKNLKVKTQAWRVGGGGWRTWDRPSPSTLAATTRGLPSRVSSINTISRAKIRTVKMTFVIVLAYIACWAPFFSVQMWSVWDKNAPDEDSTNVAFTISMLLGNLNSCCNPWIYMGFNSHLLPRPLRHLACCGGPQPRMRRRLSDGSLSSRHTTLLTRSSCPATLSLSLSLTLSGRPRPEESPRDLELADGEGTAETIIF
Method: 1. Vasopressin V1b Receptor Binding Assay:
The substance concentration was further diluted 1:5 in the assay mixture (2% DMSO in the mixture).
All determinations were carried out as triplicate determinations.

[2] = biological target: T2, recombinant human oxytocin receptors (Homo sapiens, UniProt P30559); assay: Oxytocin receptor binding assay (3H-oxytocin, HEK-293 cells); conditions: selectivity quotient, human OT vs human V1b
T2 construct: expressed in transfected cells; host or cells: HEK-293, transient expression; lysed and homogenized cells
T2 sequence (P30559 1-389): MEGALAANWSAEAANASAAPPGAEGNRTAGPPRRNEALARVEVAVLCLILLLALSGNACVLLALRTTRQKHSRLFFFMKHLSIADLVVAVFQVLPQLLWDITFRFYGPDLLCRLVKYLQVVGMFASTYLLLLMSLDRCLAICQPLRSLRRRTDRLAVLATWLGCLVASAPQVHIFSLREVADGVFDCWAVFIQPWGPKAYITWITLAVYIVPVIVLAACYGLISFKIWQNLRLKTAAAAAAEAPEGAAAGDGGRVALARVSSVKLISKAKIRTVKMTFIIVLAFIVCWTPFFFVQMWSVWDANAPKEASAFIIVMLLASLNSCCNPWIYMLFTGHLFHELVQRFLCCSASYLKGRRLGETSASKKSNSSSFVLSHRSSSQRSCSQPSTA
Method: The residue was taken up in ice-cold lysis buffer (50 mM Tris-HCl, 10% glycerol, pH 7.4 and Roche complete protease inhibitor) and subjected to an osmotic shock at 4° C. for 20 minutes. The lyzed cells were then centrifuged at 750×g at 4° C. for 20 minutes, the residue was taken up in incubation buffer, and aliquots of 10^7 cells/ml were prepared. The aliquots were frozen at −80° C. until used.
On the day of the experiment, the cells were thawed, diluted with incubation buffer and homogenized using a Multipette Combitip (Eppendorf, Hamburg). […] Triplicate determinations were set up. Bound and free radioligand were separated by filtration under vacuum with Whatman GF/B glass fiber filters with the aid of a Skatron cell harvester 7000. The bound radioactivity was determined by liquid scintillation measurement in a Tricarb Beta counter, model 2000 or 2200CA (Packard).

[3] = biological target: human vasopressin V1a receptor (Homo sapiens, UniProt P37288); assay: Vasopressin V1a receptor binding assay (125I-AVP displacement, CHO-K1 membranes); conditions: selectivity quotient, human V1a vs human V1b
Sequence of human vasopressin V1a receptor (P37288 whole entry): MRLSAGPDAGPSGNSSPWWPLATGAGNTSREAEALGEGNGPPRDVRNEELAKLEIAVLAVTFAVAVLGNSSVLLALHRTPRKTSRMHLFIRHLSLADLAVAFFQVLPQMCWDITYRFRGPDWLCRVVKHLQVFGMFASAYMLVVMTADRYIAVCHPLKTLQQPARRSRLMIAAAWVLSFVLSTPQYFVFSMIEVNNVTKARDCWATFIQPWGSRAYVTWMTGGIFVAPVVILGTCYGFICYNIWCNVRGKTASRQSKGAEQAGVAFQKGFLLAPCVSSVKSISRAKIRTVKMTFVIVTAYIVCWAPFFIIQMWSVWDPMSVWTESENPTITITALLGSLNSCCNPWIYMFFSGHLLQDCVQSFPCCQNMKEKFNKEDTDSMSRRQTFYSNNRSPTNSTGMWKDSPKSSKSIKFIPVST

| SMILES | Ki [1] | Ki(h-OT)/Ki(h-V1b)* [2] | Ki(h-V1a)/Ki(h-V1b)* [3] |
| --- | --- | --- | --- |
| CCOc1ncccc1C1(NCc2ccc(N3CCN(C)CC3)cc2)C(=O)N(S(=O)(=O)c2cccc(OC)c2)c2ccc(C#N)cc21 (stereo not drawn) [Example 25, 3-(2-Ethoxypyridin-3-yl)-1-(3-methoxyphenylsulfonyl)-3-[4-(4-methylpiperazin-1-yl)-benzylamino]-2-oxo-2,3-dihydro-1H-indole-5-carbonitrile] | 10 to 100 nM | + (10-<25) | ++ (25-75) |
| CCOc1ncccc1C1(Nc2ccc(C(=O)N3CCN(C)CC3)cc2)C(=O)N(S(=O)(=O)c2ccc(OC)cc2)c2ccc(I)cc21 (stereo not drawn) [Example 70, 3-(2-Ethoxypyridin-3-yl)-5-iodo-1-(4-methoxyphenylsulfonyl)-3-[4-(4-methylpiperazin-1-carbonyl)phenylamino]-1,3-dihydroindol-2-one] | 1 to 10 nM | + (10-<25) | ++ (25-75) |
| CCOc1ccccc1C1(NCc2ccc(N3CCN(C)CC3)cc2)C(=O)N(S(=O)(=O)c2ccc(OC)cc2)c2ccc(C#N)cc21 (stereo not drawn) [Example 37, 3-(2-Ethoxyphenyl)-1-(4-methoxyphenylsulfonyl)-3-[4-(4-methylpiperazin-1-yl)-benzylamino]-2-oxo-2,3-dihydro-1H-indole-5-carbonitrile] | 1 to 10 nM | +++ (>75) | ++ (25-75) |
| CCOc1ncccc1C1(NCc2ccc(N3CCNCC3)cc2)C(=O)N(S(=O)(=O)c2ccc(OC)cc2OC)c2ccc(C#N)cc21 (stereo not drawn) [Example 29, 1-(2,4-Dimethoxyphenylsulfonyl)-3-(2-ethoxypyridin-3-yl)-2-oxo-3-(4-piperazin-1-yl-benzylamino)-2,3-dihydro-1H-indole-5-carbonitrile] | 1 to 10 nM | + (10-<25) | ++ (25-75) |
| CCOc1ncccc1C1(NCc2cccc(N3CCN(C)CC3)c2)C(=O)N(S(=O)(=O)c2ccc(OC)cc2)c2ccc(I)cc21 (stereo not drawn) [Example 40, 3-(2-Ethoxypyridin-3-yl)-5-iodo-1-(4-methoxyphenylsulfonyl)-3-[3-(4-methylpiperazin-1-yl)-benzylamino]-1,3-dihydroindol-2-one] | 1 to 10 nM | ++ (25-75) | ++ (25-75) |
| CCOc1ncccc1C1(NC(=O)c2ccc(N3CCN(C)CC3)cc2)C(=O)N(S(=O)(=O)c2ccc(OC)cc2)c2ccc(C#N)cc21 (stereo not drawn) [Example 4, N-[5-Cyano-3-(2-ethoxypyridin-3-yl)-1-(4-methoxyphenylsulfonyl)-2-oxo-2,3-dihydro-1H-indol-3-yl]-4-(4-methylpiperazin-1-yl)benzamide] | 1 to 10 nM | ++ (25-75) | +++ (>75) |
| CCOc1ncccc1C1(NC(=O)c2ccc(N3CCN(C)CC3)cc2)C(=O)N(S(=O)(=O)c2ccc(OC)cc2OC)c2ccc(C#N)cc21 (stereo not drawn) [Example 6, N-[5-Cyano-1-(2,4-dimethoxyphenylsulfonyl)-3-(2-ethoxypyridin-3-yl)-2-oxo-2,3-dihydro-1H-indol-3-yl]-4-(4-methylpiperazin-1-yl)benzamide] | 1 to 10 nM | ++ (25-75) | +++ (>75) |
| CCOc1ncccc1C1(Nc2ccc(N3CCN(C)CC3)cc2)C(=O)N(S(=O)(=O)c2ccc(OC)cc2)c2ccc(I)cc21 (stereo not drawn) [Example 50, 3-(2-Ethoxypyridin-3-yl)-5-iodo-1-(4-methoxyphenylsulfonyl)-3-[4-(4-methylpiperazin-1-yl)-phenylamino]-1,3-dihydroindol-2-one] | 1 to 10 nM | +++ (>75) | + (10-<25) |

Second part, the molecule after the results:

| Ki [1] | Ki(h-OT)/Ki(h-V1b)* [2] | Ki(h-V1a)/Ki(h-V1b)* [3] | SMILES |
| --- | --- | --- | --- |
| 1 to 10 nM | ++ (25-75) | ++ (25-75) | CCOc1ncccc1C1(Nc2cccc(N3CCN(C)CC3)c2)C(=O)N(S(=O)(=O)c2ccc(OC)cc2OC)c2ccc(I)cc21 (stereo not drawn) [Example 60, 1-(2,4-Dimethoxyphenylsulfonyl)-3-(2-ethoxypyridin-3-yl)-5-iodo-3-[3-(4-methylpiperazin-1-yl)phenylamino]-1,3-dihydroindol-2-one] |
| 1 to 10 nM | ++ (25-75) | +++ (>75) | CCOc1ncccc1C1(NC(=O)c2ccc(N3CCN(CC)CC3)cc2)C(=O)N(S(=O)(=O)c2ccc(OC)cc2OC)c2ccc(C#N)cc21 (stereo not drawn) [Example 7, N-[5-Cyano-1-(2,4-dimethoxyphenylsulfonyl)-3-(2-ethoxypyridin-3-yl)-2-oxo-2,3-dihydro-1H-indol-3-yl]-4-(4-ethylpiperazin-1-yl)benzamide] |
| 1 to 10 nM | ++ (25-75) | ++ (25-75) | COc1ccc(S(=O)(=O)N2C(=O)C(NCc3ccc(N4CCN(C)CC4)cc3)(c3cccnc3OCC(F)(F)F)c3cc(C#N)ccc32)cc1 (stereo not drawn) [Example 77, 1-(4-Methoxyphenylsulfonyl)-3-(2-(2,2,2-trifluoroethoxy)pyridin-3-yl)-3-[4-(4-methylpiperazin-1-yl)benzylamino]-2-oxo-2,3-dihydro-1H-indole-5-carbonitrile] |
| 1 to 10 nM | +++ (>75) | ++ (25-75) | CCOc1ncccc1C1(NCc2ccc(N3CCN(C)CC3)cc2)C(=O)N(S(=O)(=O)c2ccc(OC)cc2)c2ccc(F)cc21 (stereo not drawn) [Example 15, 3-(2-Ethoxypyridin-3-yl)-5-fluoro-1-(4-methoxyphenylsulfonyl)-3-[4-(4-methylpiperazin-1-yl)benzylamino]-1,3-dihydroindol-2-one] |
| 1 to 10 nM | +++ (>75) | +++ (>75) | CCOc1ncccc1C1(NC(=O)c2ccc(N3CCN(CC)CC3)cc2)C(=O)N(S(=O)(=O)c2ccc(OC)cc2)c2ccc(C#N)cc21 (stereo not drawn) [Example 5, N-[5-Cyano-3-(2-ethoxypyridin-3-yl)-1-(4-methoxyphenylsulfonyl)-2-oxo-2,3-dihydro-1H-indol-3-yl]-4-(4-ethylpiperazin-1-yl)benzamide] |
| < 1 nM | +++ (>75) | +++ (>75) | CCOc1ncccc1C1(NCc2ccc(N3CCN(CC)CC3)cc2)C(=O)N(S(=O)(=O)c2ccc(OC)cc2)c2ccc(C#N)cc21 (stereo not drawn) [Example 31, 3-(2-Ethoxypyridin-3-yl)-3-[4-(4-ethylpiperazin-1-yl)benzylamino]-1-(4-methoxy-phenylsulfonyl)-2-oxo-2,3-dihydro-1H-indole-5-carbonitrile] |
| 1 to 10 nM | + (10-<25) | +++ (>75) | CCOc1ncccc1C1(OC(=O)c2ccc(N3CCN(C)CC3)cc2)C(=O)N(S(=O)(=O)c2ccc(OC)cc2OC)c2ccc(C#N)cc21 (stereo not drawn) [Example 3, 5-Cyano-1-(2,4-dimethoxyphenylsulfonyl)-3-(2-ethoxypyridin-3-yl)-2-oxo-2,3-dihydro-1H-indol-3-yl 4-(4-methylpiperazin-1-yl)benzoate] |
| 10 to 100 nM | +++ (>75) | + (10-<25) | CCOc1ncccc1C1(NCc2ccc(N3CCN(C)CC3)cc2)C(=O)N(S(=O)(=O)c2ccc(C#N)cc2)c2ccc(C#N)cc21 (stereo not drawn) [Example 28, 1-(4-Cyanophenylsulfonyl)-3-(2-ethoxypyridin-3-yl)-3-[4-(4-methylpiperazin-1-yl)-benzylamino]-2-oxo-2,3-dihydro-1H-indole-5-carbonitrile] |
| 1 to 10 nM | +++ (>75) | + (10-<25) | CCOc1ncccc1C1(NCc2ccc(N3CCNCC3)cc2)C(=O)N(S(=O)(=O)c2ccc(OC)cc2)c2cc(F)c(C#N)cc21 (stereo not drawn) [Example 34, 3-(2-Ethoxypyridin-3-yl)-6-fluoro-1-(4-methoxyphenylsulfonyl)-2-oxo-3-(4-piperazin-1-yl-benzylamino)-2,3-dihydro-1H-indole-5-carbonitrile] |
